PMC8779240 (Bioorganic & medicinal chemistry letters, 2021)

Key:
[1] = system: S. aureus ParC^S80F GyrA^S84L; assay type: cell-based, Staphylococcus aureus; settings: ParC^S80F/GyrA^S84L strain
[2] = system: Escherichia coli; assay: MIC against E. coli; assay type: cell-based

Q: For `CC(=O)O[C@H]1[C@H](C)[C@H](O)[C@H](C)[C@@H](O)[C@@H](C(C)OC(=O)C(C)(C)CC(=O)O)/C=C/C=C(/C)C(=O)Nc2c3oc4cc(NC5(c6c(F)cc7c(=O)c(C(=O)O)cn8c7c6OC[C@@H]8C)CC5)cc(O)c4nc-3c3c4c(c(C)c(O)c3c2=O)O[C@](C)(O/C=C/[C@H](O[C@H]2C[C@@H]3OCO[C@@H]3[C@@H](C)O2)[C@H]1C)C4=O` (stereo partly shown) [Compound 5b], which “potency compared with fluoroquinolone parent, MIC data in units of μM” value [1] is on record?
A: surpassed the potency of their fluoroquinolone parents

Q: `CC(=O)O[C@H]1[C@H](C)[C@H](O)[C@H](C)[C@@H](O)[C@@H](C(C)OC(=O)C(C)(C)CC(=O)O)/C=C/C=C(/C)C(=O)NC2=CC(=O)c3c(c(O)c(C)c4c3C(=O)[C@@](C)(O/C=C/[C@H](O[C@H]3C[C@@H]5OCO[C@@H]5[C@@H](C)O3)[C@H]1C)O4)C2=O` (stereo partly shown) [Compound 1, kanglemycin A] was tested. Which “Gram-negative activity against E. coli” value [2] did it give?
A: did not show Gram-negative activity

Q: How did the “potency compared with fluoroquinolone parent, MIC data in units of μM” value [1] turn out when `CC(=O)O[C@H]1[C@H](C)[C@H](O)[C@H](C)[C@@H](O)[C@@H](C(C)OC(=O)C(C)(C)CC(=O)O)/C=C/C=C(/C)C(=O)Nc2c3oc4cc(N5Cc6cc(-c7ccc8c(=O)c(C(=O)O)cn(C9CC9)c8c7OC(F)F)ccc6[C@H]5C)cc(O)c4nc-3c3c4c(c(C)c(O)c3c2=O)O[C@](C)(O/C=C/[C@H](O[C@H]2C[C@@H]3OCO[C@@H]3[C@@H](C)O2)[C@H]1C)C4=O` (stereo partly shown) [Compound 5c] was run?
A: surpassed the potency of their fluoroquinolone parents

Q: How did the “potency compared with fluoroquinolone parent, MIC data in units of μM” value [1] turn out when `COc1c(N2C[C@@H]3CCCN(c4cc(O)c5nc6c7c8c9c(C)c(O)c7c(=O)c(c-6oc5c4)NC(=O)/C(C)=C\C=C\[C@H](C(C)OC(=O)C(C)(C)CC(=O)O)[C@H](O)[C@@H](C)[C@@H](O)[C@@H](C)[C@H](OC(C)=O)[C@H](C)[C@@H](O[C@H]4C[C@@H]5OCO[C@@H]5[C@@H](C)O4)/C=C/O[C@@](C)(O9)C8=O)[C@@H]3C2)c(F)cc2c(=O)c(C(=O)O)cn(C3CC3)c12` (stereo partly shown) [Compound 5e] was run?
A: surpassed the potency of their fluoroquinolone parents

Q: Which “potency compared with fluoroquinolone parent, MIC data in units of μM” value [1] does the source give for `COc1c(N2C[C@@H]3CCCN(CCCNc4cc(O)c5nc6c7c8c9c(C)c(O)c7c(=O)c(c-6oc5c4)NC(=O)/C(C)=C\C=C\[C@H](C(C)OC(=O)C(C)(C)CC(=O)O)[C@H](O)[C@@H](C)[C@@H](O)[C@@H](C)[C@H](OC(C)=O)[C@H](C)[C@@H](O[C@H]4C[C@@H]5OCO[C@@H]5[C@@H](C)O4)/C=C/O[C@@](C)(O9)C8=O)[C@@H]3C2)c(F)cc2c(=O)c(C(=O)O)cn(C3CC3)c12` (stereo partly shown) [Compound 6e] here?
A: surpassed the potency of their fluoroquinolone parents

Q: `CC(=O)O[C@H]1[C@H](C)[C@H](O)[C@H](C)[C@@H](O)[C@@H](C(C)OC(=O)C(C)(C)CC(=O)O)/C=C/C=C(/C)C(=O)Nc2c3oc4cc(N5CCN(c6cc7c(cc6F)c(=O)c(C(=O)O)cn7C6CC6)CC5)cc(O)c4nc-3c3c4c(c(C)c(O)c3c2=O)O[C@](C)(O/C=C/[C@H](O[C@H]2C[C@@H]3OCO[C@@H]3[C@@H](C)O2)[C@H]1C)C4=O` (stereo partly shown) [Compound 5a] was tested. Which “fold improvement in MIC compared to ciprofloxacin in units of μM” value ([1]; MIC in μM) did it give?
A: ~ 277 fold

Q: What about the “fold improvement in activity compared to ciprofloxacin” value ([1]; MIC in μg/mL) of the same compound?
A: 64 fold
